Measurements published in patent US10519141B2, “Pyrimidine compound and pharmaceutical use thereof” (HANMI PHARM. CO., LTD., priority 2017, dated 2019).

How the values were obtained:
VEGFR2 (KDR) kinase = molecular target: T1, VEGFR2 (KDR) kinase (Homo sapiens, UniProt P35968); assay: Z'-LYTE kinase assay, inhibitory activity for VEGFR2 kinase; assay type: biochemical; conditions: compound concentration of 100 nM, read-out: Degree of inhibition (%)
T1 construct: purchased Life Technologies
Description: (§1) Inhibitory activity of the exemplary compounds among the foregoing compounds with respect to AXL, CLK2, VEGFR2 (KDR), NUAK1 kinases were measured. Z'-LYTE™ Kinase Assay Kit-Tyr 6 Peptide (Cat. No. PV4122, available from Life Technologies) for AXL, Z'-LYTE™ Kinase Assay Kit-Ser/Thr peptide 6 (Cat. No. PV3179, available from Life Technologies) for CLK2, Z'-LYTE™ Kinase Assay Kit (Cat. No. PV3190, available from Life Technologies) for VEGFR, and Adapta™ Universal Kinase Assay Kit (Cat. No. PV5099, available from Life Technologies) for NUAK1(ARK5) were used. The experiments were carried out by Life Technologies corporation.

AXL kinase = molecular target: T2, AXL kinase (Homo sapiens, UniProt P30530); assay: Z'-LYTE kinase assay, inhibitory activity for AXL kinase; assay type: biochemical; conditions: compound concentration of 100 nM, read-out: Degree of inhibition (%)
T2 construct: purchased Life Technologies
T2 sequence (P30530 26-894): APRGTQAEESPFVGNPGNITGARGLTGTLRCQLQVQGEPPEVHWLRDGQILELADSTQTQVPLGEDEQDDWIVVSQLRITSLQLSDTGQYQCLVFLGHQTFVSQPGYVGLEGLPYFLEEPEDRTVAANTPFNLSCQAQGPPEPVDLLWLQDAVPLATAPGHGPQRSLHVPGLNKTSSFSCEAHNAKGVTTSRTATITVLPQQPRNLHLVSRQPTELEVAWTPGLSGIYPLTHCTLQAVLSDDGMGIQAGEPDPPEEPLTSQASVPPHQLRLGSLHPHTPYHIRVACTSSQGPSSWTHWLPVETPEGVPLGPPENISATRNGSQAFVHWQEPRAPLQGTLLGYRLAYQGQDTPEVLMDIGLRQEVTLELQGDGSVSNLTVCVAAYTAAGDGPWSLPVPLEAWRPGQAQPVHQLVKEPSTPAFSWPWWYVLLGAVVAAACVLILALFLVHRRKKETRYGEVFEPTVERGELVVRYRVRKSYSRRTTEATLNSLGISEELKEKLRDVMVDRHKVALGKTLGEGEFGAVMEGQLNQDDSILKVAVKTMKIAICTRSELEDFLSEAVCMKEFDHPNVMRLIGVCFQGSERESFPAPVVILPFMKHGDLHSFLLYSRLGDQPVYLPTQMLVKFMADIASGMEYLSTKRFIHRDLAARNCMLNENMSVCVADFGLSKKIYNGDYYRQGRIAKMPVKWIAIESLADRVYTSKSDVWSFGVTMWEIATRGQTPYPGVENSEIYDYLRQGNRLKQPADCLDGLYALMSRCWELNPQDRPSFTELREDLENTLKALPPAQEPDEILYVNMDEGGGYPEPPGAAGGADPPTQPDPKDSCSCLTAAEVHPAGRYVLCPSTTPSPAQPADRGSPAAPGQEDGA
Description: as §1

NUAK1 (ARK5) kinase = molecular target: T3, NUAK1 (ARK5) kinase (Homo sapiens, UniProt O60285); assay: Adapta Universal kinase assay, inhibitory activity for NUAK1 kinase; assay type: biochemical; conditions: compound concentration of 100 nM, read-out: Degree of inhibition (%)
T3 construct: purchased Life Technologies
T3 sequence (O60285 1-661): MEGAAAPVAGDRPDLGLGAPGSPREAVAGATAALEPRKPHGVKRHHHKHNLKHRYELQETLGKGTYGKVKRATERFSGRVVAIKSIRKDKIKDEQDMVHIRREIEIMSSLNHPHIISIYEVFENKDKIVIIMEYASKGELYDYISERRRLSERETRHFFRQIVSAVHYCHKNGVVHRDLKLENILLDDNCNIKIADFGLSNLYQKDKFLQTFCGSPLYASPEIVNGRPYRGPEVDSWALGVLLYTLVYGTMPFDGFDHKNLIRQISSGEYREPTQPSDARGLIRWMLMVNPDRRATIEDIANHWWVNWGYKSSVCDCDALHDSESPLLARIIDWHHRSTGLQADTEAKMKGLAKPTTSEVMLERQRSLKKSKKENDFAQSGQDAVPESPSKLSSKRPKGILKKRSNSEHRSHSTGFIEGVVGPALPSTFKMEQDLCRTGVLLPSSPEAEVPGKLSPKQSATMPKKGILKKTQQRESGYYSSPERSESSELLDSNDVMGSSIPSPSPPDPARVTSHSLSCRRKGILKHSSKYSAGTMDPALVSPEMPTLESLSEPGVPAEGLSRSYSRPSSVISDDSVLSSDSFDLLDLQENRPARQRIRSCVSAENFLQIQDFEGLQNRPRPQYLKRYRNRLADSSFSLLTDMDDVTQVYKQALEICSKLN
Description: as §1

CLK2 kinase = molecular target: T4, CLK2 kinase (Homo sapiens, UniProt P49760); assay: Z'-LYTE kinase assay, inhibitory activity for CLK2 kinase; assay type: biochemical; conditions: compound concentration of 100 nM, read-out: Degree of inhibition (%)
T4 construct: purchased Life Technologies
Description: as §1

RS4-11 cell line = assay: Inhibitory activity in cell growth, MTS test, RS4-11; assay type: cell-based; conditions: Homo sapiens, 72 h, incubation three days
Description: RS4-11 cell line was incubated in an RPMI1640 culture medium (10% fetal bovine serum (FBS)) at a temperature of 37° C. The incubated cell line was prepared in an amount of 2.0×10^4 cells/100 μL, and then plated on 96-well plates. The RPMI1640 medium was serially diluted with the test compounds at a concentration in a range of 10 μM to 0.1 nM at a ratio of 1/10. Subsequently, incubation was performed thereon for three days. An MTS test was performed to measure cell viability, and the 50% growth inhibition (GI50) value of the cell line was calculated using GraphPad Prism software.

MV4-11 cell line = assay: Inhibitory activity in cell growth, MTS test, MV4-11; assay type: cell-based; conditions: Homo sapiens, 72 h, incubation three days
Description: MV4-11 cell line was incubated in an IMDM medium (10% FBS) at a temperature of 37° C. The incubated cell line was prepared in an amount of 2×10^4 cells/100 μL, and then plated on 96-well plates. The IMDM medium was treated with cascade dilution of the test compounds at a concentration in a range of 1 μM to 0.01 nM at a rate of 1/10. Subsequently, incubation was performed thereon for three days. MTS test was performed to measure cell viability, and the 50% growth inhibition (GI50) value of the cell line was calculated using GraphPad Prism software.

T1 sequence (P35968 20-1356): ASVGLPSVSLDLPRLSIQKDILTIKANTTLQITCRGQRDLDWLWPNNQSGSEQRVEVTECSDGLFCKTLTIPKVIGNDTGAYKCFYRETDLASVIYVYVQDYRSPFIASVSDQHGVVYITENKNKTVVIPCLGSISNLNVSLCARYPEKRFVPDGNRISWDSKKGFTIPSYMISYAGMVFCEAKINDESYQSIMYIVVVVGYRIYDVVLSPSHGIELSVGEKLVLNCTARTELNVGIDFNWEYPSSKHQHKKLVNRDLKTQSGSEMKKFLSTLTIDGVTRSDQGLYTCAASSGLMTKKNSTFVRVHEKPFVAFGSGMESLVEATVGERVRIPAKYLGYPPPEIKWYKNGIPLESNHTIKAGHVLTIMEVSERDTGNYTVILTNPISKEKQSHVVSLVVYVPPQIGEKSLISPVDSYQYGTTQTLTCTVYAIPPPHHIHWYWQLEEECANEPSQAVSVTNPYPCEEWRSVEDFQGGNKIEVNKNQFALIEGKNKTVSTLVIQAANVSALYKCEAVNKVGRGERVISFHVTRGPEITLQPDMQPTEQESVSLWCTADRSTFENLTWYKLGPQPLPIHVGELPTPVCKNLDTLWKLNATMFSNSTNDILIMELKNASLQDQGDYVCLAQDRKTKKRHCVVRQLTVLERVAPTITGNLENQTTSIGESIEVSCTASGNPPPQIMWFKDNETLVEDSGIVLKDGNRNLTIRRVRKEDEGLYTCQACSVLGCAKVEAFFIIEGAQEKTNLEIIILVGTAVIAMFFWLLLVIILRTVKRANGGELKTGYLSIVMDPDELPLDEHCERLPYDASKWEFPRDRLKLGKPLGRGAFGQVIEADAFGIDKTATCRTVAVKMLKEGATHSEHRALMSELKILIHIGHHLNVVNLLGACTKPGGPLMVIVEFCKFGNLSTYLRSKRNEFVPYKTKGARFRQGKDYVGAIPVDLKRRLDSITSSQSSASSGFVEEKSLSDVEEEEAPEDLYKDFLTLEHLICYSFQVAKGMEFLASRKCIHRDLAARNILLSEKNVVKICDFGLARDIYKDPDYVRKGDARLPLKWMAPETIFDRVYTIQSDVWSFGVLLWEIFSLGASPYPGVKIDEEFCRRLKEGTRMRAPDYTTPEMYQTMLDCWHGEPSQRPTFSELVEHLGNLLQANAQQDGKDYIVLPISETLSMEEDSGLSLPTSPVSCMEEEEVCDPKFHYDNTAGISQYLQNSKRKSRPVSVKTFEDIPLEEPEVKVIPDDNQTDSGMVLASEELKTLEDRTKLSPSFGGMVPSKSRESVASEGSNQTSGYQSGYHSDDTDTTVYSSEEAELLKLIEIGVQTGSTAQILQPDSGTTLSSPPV
T4 sequence (P49760 whole entry): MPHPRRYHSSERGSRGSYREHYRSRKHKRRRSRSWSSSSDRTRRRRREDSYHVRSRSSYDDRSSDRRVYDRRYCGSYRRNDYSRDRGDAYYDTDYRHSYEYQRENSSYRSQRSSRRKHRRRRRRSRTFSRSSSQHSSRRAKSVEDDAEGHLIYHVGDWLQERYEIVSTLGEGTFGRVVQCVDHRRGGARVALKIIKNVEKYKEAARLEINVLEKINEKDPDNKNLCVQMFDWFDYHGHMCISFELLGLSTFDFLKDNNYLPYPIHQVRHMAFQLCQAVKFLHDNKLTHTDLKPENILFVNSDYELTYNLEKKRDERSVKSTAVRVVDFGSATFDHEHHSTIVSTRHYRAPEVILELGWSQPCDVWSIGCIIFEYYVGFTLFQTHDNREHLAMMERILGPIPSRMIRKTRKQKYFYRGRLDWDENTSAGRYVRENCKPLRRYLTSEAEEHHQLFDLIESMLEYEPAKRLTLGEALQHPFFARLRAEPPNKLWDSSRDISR

| inhibition at 0.1 µM (VEGFR2 (KDR) kinase) [%] | inhibition at 0.1 µM (AXL kinase) [%] | inhibition at 0.1 µM (NUAK1 (ARK5) kinase) [%] | inhibition at 0.1 µM (CLK2 kinase) [%] | GI50 (RS4-11 cell line) [nM] | GI50 (MV4-11 cell line) [nM] | Structure (SMILES) |
| --- | --- | --- | --- | --- | --- | --- |
| 63 | 50 | – | – | – | – | Cc1ccc2c(-c3nc(Nc4cc(CN5CCN(C(C)(C)CO)CC5)cc(C5CC5)c4)ncc3Cl)c[nH]c2c1 [Example 41, 2-(4-(3-((5-chloro-4-(6-methyl-1H-indole-3-yl)pyrimidine-2-yl)amino)-5-cyclopropylbenzyl)piperazine-1-yl)-2-methylpropane-1-ol] |
| – | – | – | – | – | 1.2 | COc1cc(Nc2ncc(Cl)c(-c3c[nH]c4ccccc34)n2)cc(C(=O)N2CCN(CCO)CC2)c1 [Example 50, (3-((5-chloro-4-(1H-indole-3-yl)pyrimidine-2-yl)amino)-5-methoxyphenyl)(4-(2-hydroxyethyl)piperazine-1-yl)methanone] |
| – | – | – | – | – | 0.8 | CCc1cc(Nc2ncc(Cl)c(-c3c[nH]c4cc(C)ccc34)n2)cc(OCCN2CCC(O)CC2)c1 [Example 52] |
| – | – | – | – | – | 1.1 | Cc1ccc2c(-c3nc(Nc4cc(O[C@@H]5CCN(CCO)C5)cc(C5CC5)c4)ncc3Cl)c[nH]c2c1 [Example 53, (R)-2-(3-(3-((5-chloro-4-(6-methyl-1H-indole-3-yl)pyrimidine-2-yl)amino)-5-cyclopropylphenoxy)pyrrolidine-1-yl)ethane-1-ol] |

More lines, now with the values behind:

| Structure (SMILES) | inhibition at 0.1 µM (VEGFR2 (KDR) kinase) [%] | inhibition at 0.1 µM (AXL kinase) [%] | inhibition at 0.1 µM (NUAK1 (ARK5) kinase) [%] | inhibition at 0.1 µM (CLK2 kinase) [%] | GI50 (RS4-11 cell line) [nM] | GI50 (MV4-11 cell line) [nM] |
| --- | --- | --- | --- | --- | --- | --- |
| OCCN1CCN(c2cc(Nc3ncc(Cl)c(-c4c[nH]c5cc(F)ccc45)n3)cc(C3CC3)c2)CC1 [Example 1, 2-(4-(3-((5-chloro-4-(6-fluoro-1H-indole-3-yl)pyrimidine-2-yl)amino)-5-cyclopropylphenyl)piperazine-1-yl)ethane-1-ol] | 71 | 52 | 84 | 99 | 147 | – |
| Cc1ccc2c(-c3nc(Nc4cc(C5CC5)cc(N5CCN(CCO)CC5)c4)ncc3Cl)c[nH]c2c1 [Example 2, 2-(4-(3-((5-chloro-4-(6-methyl-1H-indole-3-yl)pyrimidine-2-yl)amino)-5-cyclopropylphenyl)piperazine-1-yl)ethane-1-ol] | 46 | 56 | 71 | 91 | – | – |
| Cc1ccc2c(-c3nc(Nc4cc(C5CC5)cc(N5CCC(N(C)C)CC5)c4)ncc3Cl)c[nH]c2c1 [Example 6, 5-chloro-N-(3-cyclopropyl-5-(4-(dimethylamino)piperidine-1-yl)phenyl)-4-(6-methyl-1H-indole-3-yl)pyrimidine-2-amine] | 62 | 49 | 57 | 66 | – | – |
| COc1ccc2c(-c3nc(Nc4cc(C5CC5)cc(N5CCN(CCO)CC5)c4)ncc3Cl)c[nH]c2c1 [Example 7, 2-(4-(3-((5-chloro-4-(6-methoxy-1H-indole-3-yl)pyrimidine-2-yl)amino)-5-cyclopropylphenyl)piperazine-1-yl)ethane-1-ol] | – | – | – | – | 33 | – |
| Cc1ccc2c(-c3nc(Nc4cc(C5CC5)cc(N5CCC(N(C)C)C5)c4)ncc3Cl)c[nH]c2c1 (centres unmarked) [Example 16, 5-chloro-N-(3-cyclopropyl-5-(3-(dimethylamino)pyrrolidine-1-yl)phenyl)-4-(6-methyl-1H-indole-3-yl)pyrimidine-2-amine] | 56 | 27 | 67 | 77 | – | – |
| Cc1ccc2c(-c3nc(Nc4cc(C5CC5)cc(N5CCN(C(C)(C)CO)CC5)c4)ncc3Cl)c[nH]c2c1 [Example 17, 2-(4-(3-((5-chloro-4-(6-methyl-1H-indole-3-yl)pyrimidine-2-yl)amino)-5-cyclopropylphenyl)piperazine-1-yl)-2-methylpropane-1-ol] | 67 | 66 | 72 | 93 | – | – |
| CN(C)C1CCN(c2cccc(Nc3ncc(Cl)c(-c4c[nH]c5ccccc45)n3)c2)C1 (centres unmarked) [Example 30, 5-chloro-N-(3-(3-(dimethylamino)pyrrolidine-1-yl)phenyl)-4-(1H-indole-3-yl)pyrimidine-2-amine] | – | – | – | – | – | 0.8 |
| CC(C)(CO)N1CCN(Cc2cc(Nc3ncc(Cl)c(-c4c[nH]c5ccccc45)n3)cc(C3CC3)c2)CC1 [Example 38, 2-(4-(3-((5-chloro-4-(1H-indole-3-yl)pyrimidine-2-yl)amino)-5-cyclopropylbenzyl)piperazine-1-yl)-2-methylpropane-1-ol] | 99 | 51 | 63 | 97 | – | – |
